In assay [1] the test system is 5-LO (LTB4) in heparinised human blood. Briefly: In vitro heparinised human blood challenged with A23187, LTB4 radioimmunoassay (test b). It is filed as cell-based. As for the experimental part: b) An in vitro assay system involving incubating a test compound with heparinised human blood, prior to challenge with the calcium ionophore A23187 and then indirectly measuring the inhibitory effects on 5-LO by assaying the amount of LTB4 using the specific radioimmunoassay described by Carey and Forder (F. Carey and R. A. Forder, Brit. J. Pharmacol. 1985, 84, 34P) which involves the use of a protein-LTB4 conjugate produced using the procedure of Young et alia (Prostaglandins, 1983, 26(4), 605-613). The effects of a test compound on the enzyme cyclooxygenase (which is involved in the alternative metabolic pathway for arachidonic acid and gives rise to prostaglandins, thromboxanes and related metabolites) may be measured at the same time using the specific radioimmunoassay for thromboxane B2 (TxB2) described by Carey and Forder (see above). This test provides an indication of the effects of a test compound against 5-LO and also cyclooxygenase in the presence of blood cells and proteins. It permits the selectivity of the inhibitory effect on 5-LO or cyclooxygenase to be assessed.

The test system of assay [2] is 5-LO (LTB4). Briefly: Ex vivo assay: administration of compound, blood collection, challenge with A23187, LTB4 radioimmunoassay (test c). In kind it is in vivo. The settings on record: oral. Here is the method:
c) An ex vivo assay system, which is a variation of test b) above, involving administration of a test compound (usually orally as the suspension produced when a solution of the test compound in dimethylsulphoxide is added to carboxymethylcellulose), blood collection, heparinisation, challenge with A23187 and radioimmunoassay of LTB4 and TxB2. This test provides an indication of the bioavailability of a test compound as an inhibitor of 5-LO or cyclooxygenase.

In assay [1], `CCC1(c2cccc(Sc3ccc4ccccc4c3)c2)COC(C)(C)O1` (centres unmarked) [Example 1, 4-ethyl-2,2-dimethyl-4-[3-(naphth-2-ylthio)phenyl]-1,3-dioxolane] gave an IC50 of 500 nM. This molecule also had a median effective dose (ED50) in assay [2] of 3 mg/kg.
